Test results from ChEMBL document CHEMBL4837184, “Antibacterial p-Terphenyl with a Rare 2,2'-Bithiazole Substructure and Related Compounds Isolated from the Marine-Derived Actinomycete Nocardiopsis sp. HDN154086” (J Nat Prod, 2021).
≈ marks a conversion by molar mass, not a printed value.

Legend:
[1] = test system: Bacillus cereus; experiment: Antibacterial activity against Bacillus cereus assessed as reduction in bacterial growth; format: functional; conditions: time 24 hrs
[2] = test system: Mycolicibacterium phlei; experiment: Antibacterial activity against Mycobacterium phlei assessed as reduction in bacterial growth; format: functional; conditions: time 24 hrs
[3] = test system: Bacillus subtilis; experiment: Antibacterial activity against Bacillus subtilis assessed as reduction in bacterial growth; format: functional; conditions: time 24 hrs
[4] = test system: Escherichia coli; experiment: Antibacterial activity against Escherichia coli assessed as reduction in bacterial growth; format: functional; conditions: time 24 hrs
[5] = test system: Vibrio parahaemolyticus; experiment: Antibacterial activity against Vibrio parahaemolyticus assessed as reduction in bacterial growth; format: functional; conditions: time 24 hrs
[6] = test system: Staphylococcus aureus; experiment: Antibacterial activity against methicillin-resistant Staphylococcus aureus assessed as reduction in bacterial growth; format: functional; conditions: time 24 hrs
[7] = test system: Proteus sp.; experiment: Antibacterial activity against Proteus sp. assessed as reduction in bacterial growth; format: functional; conditions: Proteus sp. (in: enterobacteria); time 24 hrs
[8] = test system: ASPC1; experiment: Cytotoxicity against human ASPC1 cells assessed as cell growth inhibition at 30 uM by SRB assay relative to control; format: functional; conditions: read-out: GI
[9] = test system: K562; experiment: Cytotoxicity against human K562 cells assessed as cell growth inhibition at 30 uM by MTT assay relative to control; format: functional; conditions: read-out: GI
[10] = Cytotoxicity against human L02 cells assessed as cell growth inhibition at 30 uM by SRB assay relative to control; format: cell-based; conditions: read-out: GI
[11] = test system: MDA-MB-231; experiment: Cytotoxicity against human MDA-MB-231 cells assessed as cell growth inhibition at 30 uM by SRB assay relative to control; format: functional; conditions: read-out: GI
[12] = test system: Staphylococcus aureus; experiment: Potency index, ratio of ciprofloxacin MIC to test compound MIC for methicillin-resistant Staphylococcus aureus; format: functional

Row | Compound | MIC [1] [µM] | MIC [2] [µM] | MIC [3] [µM] | MIC [4] [µM] | MIC [5] [µM] | MIC [6] [µM] | MIC [7] [µM] | inhibition of growth at 30 µM [8] [%] | inhibition of growth at 30 µM [9] [%] | inhibition at 30 µM [10] [%] | inhibition of growth at 30 µM [11] [%] | Ratio [12]
1 | O=C(O)c1cn(C2CC2)c2cc(N3CCNCC3)c(F)cc2c1=O [CIPROFLOXACIN] | 1.5 (≈ 0.497 µg/mL) | 0.78 (≈ 0.258 µg/mL) | 0.39 (≈ 0.129 µg/mL) | 0.78 (≈ 0.258 µg/mL) | 0.39 (≈ 0.129 µg/mL) | 50 (≈ 16.6 µg/mL) | 1.5 (≈ 0.497 µg/mL) | – | – | – | – | –
2 | COc1ccc(-c2c(OC)c(O)c(-c3ccc(OC)cc3)c3sc(-c4nccs4)nc23)cc1 | 1.5 (≈ 0.715 µg/mL) | 6.2 (≈ 2.95 µg/mL) | 3.1 (≈ 1.48 µg/mL) | 3.1 (≈ 1.48 µg/mL) | 6.2 (≈ 2.95 µg/mL) | > 50 | 3.1 (≈ 1.48 µg/mL) | < 50 | < 50 | < 50 | < 50 | –
3 | COC1=C(c2ccc(OC)cc2)C(=O)C(SC)=C(c2ccc(OC)cc2)C1=O | – | – | – | – | – | – | – | < 50 | < 50 | < 50 | < 50 | –
4 | COC(=O)CSC1=C(c2ccc(OC)cc2)C(=O)C(OC)=C(c2ccc(OC)cc2)C1=O | – | – | – | – | – | – | – | < 50 | < 50 | < 50 | < 50 | –
5 | COC(=O)CCSC1=C(c2ccc(OC)cc2)C(=O)C(OC)=C(c2ccc(OC)cc2)C1=O | > 50 | > 50 | 12 (≈ 5.62 µg/mL) | > 50 | > 50 | 6.2 (≈ 2.9 µg/mL) | 12 (≈ 5.62 µg/mL) | < 50 | < 50 | < 50 | < 50 | 8
6 | COC1=C(c2ccc(OC)cc2)C(=O)C(N)=C(c2ccc(OC)cc2)C1=O | – | – | – | – | – | – | – | < 50 | < 50 | < 50 | < 50 | –
